Results: publication PMC9457746, “Synthesis of Sulfonamides Incorporating Piperidinyl-Hydrazidoureido and Piperidinyl-Hydrazidothioureido Moieties and Their Carbonic Anhydrase I, II, IX and XII Inhibitory Activity” (Molecules, 2022)
Like-named read-outs stand apart in the source and are kept apart here.

Tests used:
hCA IX = hCA IX (Homo sapiens, UniProt Q16790); assay: stopped flow CO2 hydrase assay, hCA IX inhibition
Protocol: (§1) An Applied Photophysics stopped-flow instrument has been used for assaying the CA catalyzed CO2 hydration activity using the Khalifah procedure [23]. The used indicator was phenol red (0.2 mM), the absorbance maximum was of 557 nm, and the buffer was 20 mM Hepes (pH 7.5), whereas 20 mM Na2SO4 were employed for maintaining the ionic strength constant. […] Uncatalyzed rates were subtracted from the observed total rates. […] Inhibitor and enzyme solutions were preincubated together for 15 min, for assuring the formation of the E–I complex. The inhibition constants were obtained by non-linear least squares using the Cheng–Prusoff equation, as reported earlier [24, 25, 26] and represent the mean from at least three different determinations.

hCA II = hCA II (Homo sapiens, UniProt P00918); assay: stopped flow CO2 hydrase assay, hCA II inhibition
Protocol: as §1

hCA XII = hCA XII (Homo sapiens, UniProt O43570); assay: stopped flow CO2 hydrase assay, hCA XII inhibition
hCA XII, sequence (O43570 25-354): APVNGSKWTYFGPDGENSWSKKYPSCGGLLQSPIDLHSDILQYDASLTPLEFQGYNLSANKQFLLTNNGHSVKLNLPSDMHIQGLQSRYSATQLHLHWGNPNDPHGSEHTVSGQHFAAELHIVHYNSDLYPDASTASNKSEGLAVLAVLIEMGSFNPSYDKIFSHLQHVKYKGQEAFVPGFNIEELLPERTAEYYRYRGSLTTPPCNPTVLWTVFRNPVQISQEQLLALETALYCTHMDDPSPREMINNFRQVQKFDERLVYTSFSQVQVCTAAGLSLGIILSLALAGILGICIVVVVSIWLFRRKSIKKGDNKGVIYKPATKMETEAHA
Protocol: as §1

hCA I = hCA I (Homo sapiens, UniProt P00915); assay: stopped flow CO2 hydrase assay, hCA I inhibition
hCA I, sequence (P00915 whole entry): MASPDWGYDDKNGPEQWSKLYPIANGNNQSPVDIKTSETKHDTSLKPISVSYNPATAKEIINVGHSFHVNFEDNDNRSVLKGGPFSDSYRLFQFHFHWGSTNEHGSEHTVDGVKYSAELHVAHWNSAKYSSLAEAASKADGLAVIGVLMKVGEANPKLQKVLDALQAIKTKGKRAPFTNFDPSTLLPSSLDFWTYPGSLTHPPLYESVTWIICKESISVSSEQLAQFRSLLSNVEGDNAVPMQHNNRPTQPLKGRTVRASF
Protocol: as §1

[1] = read-out: Ki (nM) hCAIX, Table 2, thioureas 6a-y, recombinant enzyme, 15 min preincubation, mean of at least three determinations
[2] = read-out: Ki (nM) hCAII, Table 2, thioureas 6a-y, recombinant enzyme, 15 min preincubation, mean of at least three determinations
[3] = read-out: Ki (nM) hCAXII, Table 2, thioureas 6a-y, recombinant enzyme, 15 min preincubation, mean of at least three determinations
[4] = read-out: Ki (nM) hCAI, Table 2, thioureas 6a-y, recombinant enzyme, 15 min preincubation, mean of at least three determinations

Ki (hCA IX) | Ki (hCA II) | Ki (hCA XII) | Ki (hCA I) | melting point | Compound | also measured
– | – | – | – | – | 2-(1-(3-sulfamoylbenzoyl)piperidine-4-carbonyl)-N-(p-tolyl)hydrazine-1-carbothioamide [Compound 6s] | Ki (hCA IX; [1]): 9.3 nM; Ki (hCA II; [2]): 4.3 nM; increase in hCA II activity as compared to the 2-methyl analog (hCA II; versus 6r): about 8 fold; Ki (hCA XII; [3]): 2.6 nM; increase in hCA XII activity as compared to the 2-methyl analog (hCA XII; versus 6r): about 8 fold; Ki (hCA I; [4]): 56.5 nM
– | – | – | – | – | 2-(1-(3-sulfamoylbenzoyl)piperidine-4-carbonyl)-N-(p-tolyl)hydrazine-1-carbothioamide [Compound 6t] | Ki (hCA IX; [1]): 28.4 nM; Ki (hCA II; [2]): 58 nM; Ki (hCA XII; [3]): 31 nM; Ki (hCA I; [4]): 613 nM
– | – | – | – | – | 4-(4-(4-(4-(Trifluoromethyl)phenyl)piperazine-1-carbonyl)piperidine-1-carbonyl)benzenesulfonamide [Compound 6c] | Ki (hCA IX; [1]): 7.2 nM; Ki (hCA XII; [3]): 4.5 nM
16.5 nM | 29.3 nM | 22.8 nM | 93.3 nM | – | NS(=O)(=O)c1ccc(C(=O)N2CCC(C(=O)NNC(=O)Nc3ccccc3)CC2)cc1 [Compound 5a] | –
25.1 nM | 15.3 nM | 13.6 nM | 164 nM | 214 to 215 °C | NS(=O)(=O)c1ccc(C(=O)N2CCC(C(=O)NNC(=O)Nc3ccccc3Cl)CC2)cc1 [Compound 5b, N-(2-Chlorophenyl)-2-(1-(4-sulfamoylbenzoyl)piperidine-4-carbonyl)hydrazinecarboxamide] | –
37.8 nM | 5.1 nM | 44.6 nM | 218 nM | – | NS(=O)(=O)c1ccc(C(=O)N2CCC(C(=O)NNC(=O)Nc3cccc(Cl)c3)CC2)cc1 [Compound 5c] | –
93.7 nM | 109 nM | 101 nM | 447 nM | 209 to 210 °C | NS(=O)(=O)c1ccc(C(=O)N2CCC(C(=O)NNC(=O)Nc3ccc(Cl)cc3)CC2)cc1 [Compound 5d, N-(4-Chlorophenyl)-2-(1-(4-sulfamoylbenzoyl)piperidine-4-carbonyl)hydrazinecarboxamide] | –
28.9 nM | 68.8 nM | 16.4 nM | 259 nM | – | NS(=O)(=O)c1ccc(C(=O)N2CCC(C(=O)NNC(=O)Nc3c(Cl)cccc3Cl)CC2)cc1 [Compound 5e] | –
22.5 nM | 24.6 nM | 8.4 nM | 562 nM | 229 to 230 °C | NS(=O)(=O)c1ccc(C(=O)N2CCC(C(=O)NNC(=O)Nc3ccccc3F)CC2)cc1 [Compound 5f, N-(2-fluorophenyl)-2-(1-(4-sulfamoylbenzoyl)piperidine-4-carbonyl)hydrazinecarboxamide] | –
89.7 nM | 17.7 nM | 19.4 nM | 277 nM | 214 to 215 °C | NS(=O)(=O)c1ccc(C(=O)N2CCC(C(=O)NNC(=O)Nc3cccc(F)c3)CC2)cc1 [Compound 5g, N-(3-fluorophenyl)-2-(1-(4-sulfamoylbenzoyl)piperidine-4-carbonyl)hydrazinecarboxamide] | –
2.1 nM | 12.1 nM | 24 nM | 60.6 nM | – | NS(=O)(=O)c1ccc(C(=O)N2CCC(C(=O)NNC(=O)Nc3ccc(F)cc3)CC2)cc1 [Compound 5h] | –
10.1 nM | 8.6 nM | 12.7 nM | 184 nM | 194 to 195 °C | NS(=O)(=O)c1ccc(C(=O)N2CCC(C(=O)NNC(=O)Nc3c(F)cccc3F)CC2)cc1 [Compound 5i, N-(2,6-difluorophenyl)-2-(1-(4-sulfamoylbenzoyl)piperidine-4-carbonyl)hydrazinecarboxamide] | –
34.5 nM | 25.4 nM | 60.4 nM | 67.6 nM | 238 to 240 °C | Cc1ccccc1NC(=O)NNC(=O)C1CCN(C(=O)c2ccc(S(N)(=O)=O)cc2)CC1 [Compound 5j, 2-(1-(4-Sulfamoylbenzoyl)piperidine-4-carbonyl)-N-(o-tolyl)hydrazinecarboxamide] | –
8.2 nM | 114 nM | 15.6 nM | 94.5 nM | 222 to 225 °C | Cc1cccc(NC(=O)NNC(=O)C2CCN(C(=O)c3ccc(S(N)(=O)=O)cc3)CC2)c1 [Compound 5k, 2-(1-(4-Sulfamoylbenzoyl)piperidine-4-carbonyl)-N-(m-tolyl)hydrazinecarboxamide] | –
8.1 nM | 22 nM | 36.7 nM | 81.7 nM | – | Cc1ccc(NC(=O)NNC(=O)C2CCN(C(=O)c3ccc(S(N)(=O)=O)cc3)CC2)cc1 [Compound 5l] | –
25.1 nM | 62.1 nM | 51.2 nM | 364 nM | 212 to 213 °C | Cc1cccc(C)c1NC(=O)NNC(=O)C1CCN(C(=O)c2ccc(S(N)(=O)=O)cc2)CC1 [Compound 5m, N-(2,6-Dimethylphenyl)-2-(1-(4-sulfamoylbenzoyl)piperidine-4-carbonyl)hydrazinecarboxanide] | –
34.4 nM | 47.8 nM | 44.7 nM | 165 nM | 216 to 217 °C | Cc1cc(C)cc(NC(=O)NNC(=O)C2CCN(C(=O)c3ccc(S(N)(=O)=O)cc3)CC2)c1 [Compound 5n, N-(3,5-Dimethylphenyl)-2-(1-(4-sulfamoylbenzoyl)piperidine-4-carbonyl)hydrazinecarboxamide] | –
8.6 nM | 185 nM | 19.6 nM | 451 nM | 219 to 220 °C | COc1ccccc1NC(=O)NNC(=O)C1CCN(C(=O)c2ccc(S(N)(=O)=O)cc2)CC1 [Compound 5o] | –
24 nM | 45.6 nM | 17 nM | 281 nM | 218 to 220 °C | COc1cccc(NC(=O)NNC(=O)C2CCN(C(=O)c3ccc(S(N)(=O)=O)cc3)CC2)c1 [Compound 5p, (3-Methoxyphenyl)-2-(1-(4-sulfamoylbenzoyl)piperidine-4-carbonyl)hydrazinecarboxamide] | increase of activity on hCA II on shifting the methoxy group into 3-position (hCA II; versus methoxy analogs 5o/5q): about 2 fold
8.9 nM | 99.7 nM | 9.1 nM | 487 nM | 228 to 230 °C | COc1ccc(NC(=O)NNC(=O)C2CCN(C(=O)c3ccc(S(N)(=O)=O)cc3)CC2)cc1 [Compound 5q] | –
23.2 nM | 19.8 nM | 15.6 nM | 322 nM | – | COc1ccc(NC(=O)NNC(=O)C2CCN(C(=O)c3ccc(S(N)(=O)=O)cc3)CC2)c(OC)c1 [Compound 5r] | –
40 nM | 48.2 nM | 20.1 nM | 77.8 nM | – | NS(=O)(=O)c1ccc(C(=O)N2CCC(C(=O)NNC(=O)NCc3ccccc3)CC2)cc1 [Compound 5t] | –
45.3 nM | 40.7 nM | 6.4 nM | 130 nM | – | COc1ccc(CNC(=O)NNC(=O)C2CCN(C(=O)c3ccc(S(N)(=O)=O)cc3)CC2)cc1 [Compound 5u] | selectivity for hCAXII compared with hCAII and hCAIX (hCA XII; hCA XII versus hCA II and hCA IX): about 6 fold
28.8 nM | 26.5 nM | 3.2 nM | 30.1 nM | 210 to 211 °C | NS(=O)(=O)c1ccc(C(=O)N2CCC(C(=O)NNC(=S)Nc3ccccc3)CC2)cc1 [Compound 6a, N-phenyl-2-(1-(4-sulfamoylbenzoyl)piperidine-4-carbonyl)hydrazine-1-carbothioamide] | selectivity of hCA XII inhibition on hCA I and hCA II (hCA XII; hCA XII versus hCA I and hCA II): about 8 fold
13.6 nM | 60.4 nM | 45 nM | 298 nM | 236 to 237 °C | NS(=O)(=O)c1ccc(C(=O)N2CCC(C(=O)NNC(=S)Nc3ccc([N+](=O)[O-])cc3)CC2)cc1 [Compound 6b, N-(4-Nitrophenyl)-2-(1-(4-sulfamoylbenzoyl)piperidine-4-carbonyl)hydrazinecarbothioamide] | selectivity on hCA IX compared to hCA I (hCA IX; hCA IX versus hCA I): about 22 fold; selectivity on hCA IX compared to hCA II (hCA IX; hCA IX versus hCA II): about 4 fold; selectivity on hCA IX compared to hCA XII (hCA IX; hCA IX versus hCA XII): ~3 fold
8.2 nM | 20.6 nM | 27.1 nM | 173 nM | 209 to 210 °C | NS(=O)(=O)c1ccc(C(=O)N2CCC(C(=O)NNC(=S)Nc3ccccc3Cl)CC2)cc1 [Compound 6d, N-(2-Chlorophenyl)-2-(1-(4-sulfamoylbenzoyl)piperidine-4-carbonyl)hydrazinecarbothioamide] | –
18 nM | 16.6 nM | 9.7 nM | 323 nM | 226 to 227 °C | NS(=O)(=O)c1ccc(C(=O)N2CCC(C(=O)NNC(=S)Nc3cccc(Cl)c3)CC2)cc1 [Compound 6e, N-(3-Chlorophenyl)-2-(1-(4-sulfamoylbenzoyl)piperidine-4-carbonyl)hydrazinecarbothioamide] | –
– | 102 nM | – | 590 nM | – | NS(=O)(=O)c1ccc(C(=O)N2CCC(C(=O)NNC(=S)Nc3cccc(F)c3)CC2)cc1 [Compound 6o, N-(3-Fluorophenyl)-2-(1-(4-sulfamoylbenzoyl)piperidine-4-carbonyl)hydrazinecarbothioamide] | Ki (hCA IX; [1]): 5.6 nM
– | – | – | – | – | N-(1-Phenylethyl)-2-(1-(4-sulfamoylbenzoyl)piperidine-4-carbonyl)hydrazinecarbothioamide [Compound 6x] | Ki (hCA IX; [1]): 2.9 nM; Ki (hCA II; [2]): 7.6 nM; Ki (hCA XII; [3]): 10.4 nM; Ki (hCA I; [4]): 76.6 nM
